Results published in ChEMBL document CHEMBL1125141, “Structure-activity relationships of N2-substituted guanines as inhibitors of HSV1 and HSV2 thymidine kinases” (J Med Chem, 1990).

Target: T1, Thymidine kinase (Human alphaherpesvirus 1, UniProt Q9QNF7)
T1 sequence (Q9QNF7 whole entry): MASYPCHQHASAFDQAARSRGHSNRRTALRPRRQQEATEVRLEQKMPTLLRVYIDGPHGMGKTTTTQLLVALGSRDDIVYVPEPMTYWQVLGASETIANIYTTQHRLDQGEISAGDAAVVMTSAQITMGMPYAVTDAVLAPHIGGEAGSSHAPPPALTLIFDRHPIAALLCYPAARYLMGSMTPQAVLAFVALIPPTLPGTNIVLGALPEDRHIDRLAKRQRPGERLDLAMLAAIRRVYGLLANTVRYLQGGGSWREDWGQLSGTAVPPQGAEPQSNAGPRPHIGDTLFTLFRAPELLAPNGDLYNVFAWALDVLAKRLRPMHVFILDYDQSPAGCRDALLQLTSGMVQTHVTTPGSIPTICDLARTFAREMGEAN
Assay: Inhibition of TdR phosphorylation using thymidine kinase (TK) assay for herpes simplex virus type 1 (HSV-1).
Type: functional

| Structure (SMILES) | Ki |
| --- | --- |
| CCCCCCNC1=NC(=O)C2N=CN([C@H]3C[C@H](O)[C@@H](CO)O3)C2=N1 (some centres not stated) | 2.6 µM |

Target: T1, Thymidine kinase
Assay: Inhibition of TdR phosphorylation using thymidine kinase assay for herpes simplex virus type 1
Type: functional

| Structure (SMILES) | IC50 |
| --- | --- |
| Oc1[nH]c(Nc2ccc(C(F)(F)F)cc2)nc2ncnc1-2 | 30 µM |
| Oc1[nH]c(Nc2ccc(Br)c(Br)c2)nc2ncnc1-2 | 3 µM |
| Oc1[nH]c(Nc2ccc3ccccc3c2)nc2ncnc1-2 | 40 µM |
| O=c1[nH]c(Nc2cccc(C(F)(F)F)c2)nc2nc[nH]c12 | 0.15 µM |
| Oc1[nH]c(Nc2ccc(F)c(Cl)c2)nc2ncnc1-2 | 8 µM |
| O=c1[nH]c(Nc2ccc(O)cc2)nc2nc[nH]c12 | 140 µM |
| O=c1nc(Nc2cccc(CO)c2)[nH]c2nc[nH]c12 | 25 µM |
| O=c1[nH]c(NCc2ccc(Cl)cc2)nc2nc[nH]c12 | 8.5 µM |
| O=c1[nH]c(Nc2ccc(F)c(F)c2)nc2nc[nH]c12 | 50 µM |
| CCCCCCNc1nc(O)c2[nH]cnc2n1 | 55 µM |
| CCCCc1ccc(Nc2nc3nc[nH]c3c(=O)[nH]2)cc1 | 50 µM |
| OCCCCCNc1nc(O)c2[nH]cnc2n1 | 100 µM |
| Cc1ccc(Nc2nc3nc[nH]c3c(=O)[nH]2)cc1 | 50 µM |
| Oc1[nH]c(Nc2ccc(Br)cc2)nc2ncnc1-2 | 1 µM |
| Oc1[nH]c(Nc2cccc(Cl)c2)nc2ncnc1-2 | 1.3 µM |
| CCc1cccc(Nc2nc3nc[nH]c3c(=O)[nH]2)c1 | 2.5 µM |
